Measured values published in the supplement of paper PMC10307832.

Columns and labels:
Test in all cases: relative viability (nuclei count vs DMSO), 5 days (fraction); higher = more cells survive
[1] = compound: COc1cc(Nc2ncc(F)c(Nc3ccc4c(n3)NC(=O)C(C)(C)O4)n2)cc(OC)c1OC [R406] + CC(=O)c1c(C)c2cnc(Nc3ccc(N4CCNCC4)cn3)nc2n(C2CCCC2)c1=O [Palbociclib] (partner 0.5 µM)
Summary of the method: (§1)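 Values are medians from duplicate plates. Each reflects relative viability, defined as the nuclei count of treated wells over that of vehicle wells. Lung cancer cell lines in 1536-well plates were pin-tool dosed one day after seeding with one drug alone or with a fixed anchor-drug dose plus five library-drug doses (not always all listed) in √10 steps, then fixed, stained and imaged at 4× after 5 days.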

[2] = compound: O=C(/C=C/c1cccnc1)NCCCCC1CCN(C(=O)c2ccccc2)CC1 [Daporinad] + Nc1ncn([C@H]2C[C@H](O)[C@@H](CO)O2)c(=O)n1 [Decitabine] (partner 2 µM)
Summary of the method: as §1

[3] = compound: COc1cc(Nc2ncc(F)c(Nc3ccc4c(n3)NC(=O)C(C)(C)O4)n2)cc(OC)c1OC [R406] + NC(=O)Nc1cc(-c2cccc(F)c2)sc1C(=O)N[C@H]1CCCNC1 [AZD7762] (partner 0.2 µM)
Summary of the method: as §1

[4] = compound: O=C(/C=C/c1cccnc1)NCCCCC1CCN(C(=O)c2ccccc2)CC1 [Daporinad] + C[C@@H](Oc1cc(-c2cnn(C3CCNCC3)c2)cnc1N)c1c(Cl)ccc(F)c1Cl [Crizotinib] (partner 1 µM)
Summary of the method: as §1

Cell Line	relative viability ([1]; first compound 0.08 µM)	relative viability ([1]; first compound 0.253 µM)	relative viability ([1]; first compound 0.8 µM)	relative viability ([1]; first compound 2.53 µM)	relative viability ([1]; first compound 8 µM)	relative viability ([2]; first compound 0.0005 µM)	relative viability ([2]; first compound 0.001581 µM)	relative viability ([2]; first compound 0.005 µM)	relative viability ([2]; first compound 0.01581 µM)	relative viability ([3]; first compound 0.08 µM)	relative viability ([3]; first compound 0.253 µM)	relative viability ([3]; first compound 0.8 µM)	relative viability ([3]; first compound 2.53 µM)	relative viability ([3]; first compound 8 µM)	relative viability ([4]; first compound 0.0005 µM)	relative viability ([4]; first compound 0.001581 µM)	relative viability ([4]; first compound 0.005 µM)	relative viability ([4]; first compound 0.01581 µM)
NCI-H522	1.11	0.916	0.969	0.899	0.719	0.626	0.689	0.634	0.628	0.914	0.921	0.813	0.823	0.765				
HCC-15	0.818	0.827	0.801	0.728	0.594	0.601	0.714	0.771	0.766	1.35	1.33	1.38	1.19	0.751	0.785	0.853	0.907	0.831
A-427	0.516	0.596	0.575	0.477	0.446	0.54	0.571	0.506	0.493	0.832	0.795	0.86	0.663	0.43	0.857	0.917	0.994	0.749
NCI-H2228	0.728	1.07	0.688	0.244	0.427										0.505	0.548	0.625	0.636
NCI-H1734	0.359	0.372	0.376	0.346	0.243	0.488	0.494	0.394	0.32	0.58	0.582	0.679	0.228	0.313	0.713	0.715	0.737	0.464
NCI-H441	0.214	0.191	0.204	0.137	0.118	0.249	0.204	0.281	0.237	1.03	1.03	1.26	0.953	0.958	0.79	0.916	1.1	1.15
PC-3 [JPC-3]	0.518	0.591	0.582	0.549	0.45	0.84	0.781	0.91	0.907	0.817	0.819	0.923	0.684	0.381	1	1.02	1.11	1.01
NCI-H1915	0.536	0.567	0.529	0.488	0.521	0.25	0.283	0.271	0.257	0.687	0.751	0.735	0.614	0.614	0.911	0.933	0.982	0.915
NCI-H1666	0.653	0.662	0.678	0.675	0.638	0.666	0.712	0.814	0.718	1.12	0.937	0.893	0.892	0.773	1.25	1.06	1.03	0.97
